What was measured:
[1] = biological target: T1, hCA XII (Homo sapiens, UniProt O43570); experiment: stopped-flow CO2 hydration assay; type: biochemical
T1 construct: gene CA12; recombinant from E. coli; transmembrane isoform with extracellular catalytic domain
Text: stopped-flow CO2 hydration assay on hCA XII

[2] = biological target: T2, hCA II (Homo sapiens, UniProt P00918); experiment: stopped-flow CO2 hydration assay; type: biochemical
T2 construct: gene CA2; recombinant from E. coli; cytosolic isoform
Text: stopped-flow CO2 hydration assay on hCA II

[3] = biological target: T3, hCA I (Homo sapiens, UniProt P00915); experiment: stopped-flow CO2 hydration assay; type: biochemical
T3 construct: gene CA1; recombinant from E. coli; cytosolic isoform
T3 sequence (P00915 2-261): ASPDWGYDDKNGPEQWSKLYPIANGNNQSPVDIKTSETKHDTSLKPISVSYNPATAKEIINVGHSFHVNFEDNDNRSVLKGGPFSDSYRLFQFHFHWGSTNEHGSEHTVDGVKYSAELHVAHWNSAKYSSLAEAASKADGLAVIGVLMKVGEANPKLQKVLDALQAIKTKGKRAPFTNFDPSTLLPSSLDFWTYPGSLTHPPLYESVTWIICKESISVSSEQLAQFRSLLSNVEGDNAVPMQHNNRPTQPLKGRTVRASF
Text: stopped-flow CO2 hydration assay on hCA I

[4] = biological target: T4, hCA IX (Homo sapiens, UniProt Q16790); experiment: stopped-flow CO2 hydration assay; type: biochemical; conditions: read-out: KI^* (nM) / hCAIX
T4 construct: gene CA9; recombinant from E. coli; transmembrane isoform with extracellular catalytic domain
Text: stopped-flow CO2 hydration assay on hCA IX

[5] = stopped-flow CO2 hydration assay; type: biochemical, Homo sapiens; conditions: read-out: KI^* (nM) / hCA I

T1 sequence (O43570 30-289 limits assumed): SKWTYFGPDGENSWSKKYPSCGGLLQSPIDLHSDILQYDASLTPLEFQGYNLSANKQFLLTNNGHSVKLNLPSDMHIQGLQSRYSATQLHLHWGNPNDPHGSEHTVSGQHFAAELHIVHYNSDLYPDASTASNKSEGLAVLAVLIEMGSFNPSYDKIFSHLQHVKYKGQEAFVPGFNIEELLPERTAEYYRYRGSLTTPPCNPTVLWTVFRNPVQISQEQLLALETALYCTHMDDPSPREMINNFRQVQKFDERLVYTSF

Row | SMILES | Ki [1] | Ki [2] | Ki [3] | Ki [4] | Ki [5]
1 | NS(=O)(=O)c1ccc2[nH]c(C(=O)NN=Cc3cccs3)c(-c3ccccc3)c2c1 [compound 4, 3-Phenyl-2-{[2-(thiophene-2-ylmethylidene)hydrazinyl]carbonyl}-1H-indole-5-sulfonamide] | 4.5 nM | > 10000 nM | 6670 nM | 47.4 nM | –
2 | NS(=O)(=O)c1ccc2[nH]c(C(=O)NN=Cc3ccc(Br)s3)c(-c3ccccc3)c2c1 [compound 5, 2-({2-[(5-Bromothiophene-2-yl)methylidene]hydrazinyl}carbonyl)-3-phenyl-1H-indole-5-sulfonamide] | 75.1 nM | > 10000 nM | 9410 nM | 48.4 nM | –
3 | Cn1cccc1C=NNC(=O)c1[nH]c2ccc(S(N)(=O)=O)cc2c1-c1ccccc1 [compound 6, 2-({2-[(1-Methyl-1H-pyrrol-2-yl)methylidene]hydrazinyl}carbonyl)-3-phenyl-1H-indole-5-sulfonamide] | 64.4 nM | > 10000 nM | 9570 nM | 44.3 nM | –
4 | NS(=O)(=O)c1ccc2[nH]c(C(=O)NN=Cc3cccnc3)c(-c3ccccc3)c2c1 [compound 7, 3-Phenyl-2-{[2-(pyridine-3-ylmethylidene)hydrazinyl]carbonyl}-1H-indole-5-sulfonamide] | 1.4 nM | 8910 nM | 8590 nM | 35.8 nM | –
5 | NS(=O)(=O)c1ccc2[nH]c(C(=O)NN=Cc3ccncc3)c(-c3ccccc3)c2c1 [compound 8, 3-Phenyl-2-{[2-(pyridine-4-ylmethylidene)hydrazinyl]carbonyl}-1H-indole-5-sulfonamide] | 6.6 nM | 3490 nM | 3130 nM | 15.8 nM | –
6 | NS(=O)(=O)c1ccc2[nH]c(C(=O)NN=Cc3c[nH]c4ccccc34)c(-c3ccccc3)c2c1 [compound 9, 3-Phenyl-2-{[2-(1H-indole-3-ylmethylidene)hydrazinyl]carbonyl}-1H-indole-5-sulfonamide] | 77.3 nM | – | > 10000 nM | 207 nM | > 10000 nM
7 | CCC(CC)=NNC(=O)c1[nH]c2ccc(S(N)(=O)=O)cc2c1-c1ccccc1 [compound 14, 2-{[2-(Pentan-3-ylidene)hydrazinyl]carbonyl}-3-phenyl-1H-indole-5-sulfonamide] | 9.4 nM | 6620 nM | 9250 nM | 43.7 nM | –
8 | CC(CC(C)C)=NNC(=O)c1[nH]c2ccc(S(N)(=O)=O)cc2c1-c1ccccc1 [compound 15, 2-{[2-(4-Methylpentan-2-ylidene)hydrazinyl]carbonyl}-3-phenyl-1H-indole-5-sulfonamide] | 27.9 nM | 6560 nM | 8650 nM | 188 nM | –
9 | NS(=O)(=O)c1ccc2[nH]c(C(=O)NN=C3CCN(Cc4ccccc4)CC3)c(-c3ccccc3)c2c1 [compound 24, 2-{[2-(1-Benzylpiperidine-4-ylidene)hydrazinyl]carbonyl}-3-phenyl-1H-indole-5-sulfonamide] | 9.4 nM | 372 nM | 7380 nM | 11.7 nM | –

More lines, now with the values ahead:

Row | Ki [1] | Ki [2] | Ki [3] | Ki [4] | Ki [5] | SMILES
10 | 23.8 nM | 9370 nM | 7480 nM | 32.9 nM | – | C=NNC(=O)c1[nH]c2ccc(S(N)(=O)=O)cc2c1-c1ccccc1 [compound 10, 2-[(2-Methylidenehydrazinyl)carbonyl]-3-phenyl-1H-indole-5-sulfonamide]
11 | 62.6 nM | 5870 nM | 4060 nM | 12.9 nM | – | CC=NNC(=O)c1[nH]c2ccc(S(N)(=O)=O)cc2c1-c1ccccc1 [compound 11, 2-[(2-Ethylidenehydrazinyl)carbonyl]-3-phenyl-1H-indole-5-sulfonamide]
12 | 87.9 nM | 8500 nM | 9560 nM | 47.9 nM | – | CC(C)=NNC(=O)c1[nH]c2ccc(S(N)(=O)=O)cc2c1-c1ccccc1 [compound 12, 3-Phenyl-2-{[2-(propan-2-ylidene)hydrazinyl]carbonyl}-1H-indole-5-sulfonamide]
13 | 92.4 nM | 8030 nM | 9620 nM | 42.1 nM | – | CCC(C)=NNC(=O)c1[nH]c2ccc(S(N)(=O)=O)cc2c1-c1ccccc1 [compound 13, 2-{[2-(Butan-2-ylidene)hydrazinyl]carbonyl}-3-phenyl-1H-indole-5-sulfonamide]
14 | 97.2 nM | 5960 nM | > 10000 nM | 476 nM | – | NS(=O)(=O)c1ccc2[nH]c(C(=O)NN=C3CCCC3)c(-c3ccccc3)c2c1 [compound 16, 2-[(2-Cyclopentylidenehydrazinyl)carbonyl]-3-phenyl-1H-indole-5-sulfonamide]
15 | 86.2 nM | 5870 nM | > 10000 nM | 191 nM | – | NS(=O)(=O)c1ccc2[nH]c(C(=O)NN=C3CCCCC3)c(-c3ccccc3)c2c1 [compound 17, 2-[(2-Cyclohexylidenehydrazinyl)carbonyl]-3-phenyl-1H-indole-5-sulfonamide]
16 | 139 nM | 8940 nM | > 10000 nM | 419 nM | – | CC1CCC(=NNC(=O)c2[nH]c3ccc(S(N)(=O)=O)cc3c2-c2ccccc2)CC1 (stereo not drawn) [compound 18, 2-{[2-(4-Methylcyclohexylidene)hydrazinyl]carbonyl}-3-phenyl-1H-indole-5-sulfonamide]
17 | 220 nM | 1280 nM | > 10000 nM | 475 nM | – | CCC1CCC(=NNC(=O)c2[nH]c3ccc(S(N)(=O)=O)cc3c2-c2ccccc2)CC1 (stereo not drawn) [compound 19, 2-{[2-(4-Ethylcyclohexylidene)hydrazinyl]carbonyl}-3-phenyl-1H-indole-5-sulfonamide]
18 | 154 nM | 796 nM | > 10000 nM | 348 nM | – | CCCC1CCC(=NNC(=O)c2[nH]c3ccc(S(N)(=O)=O)cc3c2-c2ccccc2)CC1 (stereo not drawn) [compound 20, 2-{[2-(4-Propylcyclohexylidene)hydrazinyl]carbonyl}-3-phenyl-1H-indole-5-sulfonamide]
19 | 14.8 nM | 831 nM | > 10000 nM | 32.3 nM | – | NS(=O)(=O)c1ccc2[nH]c(C(=O)NN=C3CCC(c4ccccc4)CC3)c(-c3ccccc3)c2c1 (stereo not drawn) [compound 21, 2-{[2-(4-Phenylcyclohexylidene)hydrazinyl]carbonyl}-3-phenyl-1H-indole-5-sulfonamide]
20 | 26.6 nM | 3380 nM | > 10000 nM | 17.4 nM | – | CC(C)(C)C1CCC(=NNC(=O)c2[nH]c3ccc(S(N)(=O)=O)cc3c2-c2ccccc2)CC1 (stereo not drawn) [compound 22, 2-{[2-(4-tert-buthylcyclohexylidene)hydrazinyl]carbonyl}-3-phenyl-1H-indole-5-sulfonamide]
21 | 62.9 nM | 309 nM | > 10000 nM | 9.2 nM | – | CN1CCC(=NNC(=O)c2[nH]c3ccc(S(N)(=O)=O)cc3c2-c2ccccc2)CC1 [compound 23, 2-{[2-(1-Methylpiperidine-4-ylidene)hydrazinyl]carbonyl}-3-phenyl-1H-indole-5-sulfonamide]

— paper PMC6539891, “Indole-Based Hydrazones Containing A Sulfonamide Moiety as Selective Inhibitors of Tumor-Associated Human Carbonic Anhydrase Isoforms IX and XII” (International Journal of Molecular Sciences, 2019)
